In patent publication US7834019B2, “Substituted pyrazolo[3,4-d]pyrimidinone derivatives” (Banyu Pharmaceutical Co., Ltd., priority 2006, dated 2010):

Assays:
[1] = tested on: Cdc2 (Cdk1) tyrosine 15-phosphorylation; assay: Cdc2 (Cdk1) tyrosine 15-phosphorylation-inhibitory effect in WiDr cells + gemcitabine (ELISA); assay type: cell-based; settings: Homo sapiens, gemcitabine 100 nM for 24 hours, then test compound with nocodazole for 8 hours, read-out: Cdc2-Y15 Phosphorylation-Inhibitory Effect (WiDr, + gemcitabine) (EC50)
Description: Pharmaceutical Text 2 (Method of Determining Drug Potency in Cells (Cdc2 (Cdk1) Tyrosine 15-Phosphorylation-Inhibitory Effect))
Fetal bovine serum (FBS) was obtained from Morgate; media RPMI1640 and DMEM were from Invitrogen; camptothecin was from Sigma; gemcitabine was from Nippon Eli Lilly; nocodazole and protease inhibitor cocktail were from Sigma; rabbit anti-Cdc2 antibody and mouse anti-Cdc2 antibody were from Santa Cruz Biotechnology; rabbit anti-tyrosine 15-phosphorylated Cdc2 antibody and horseradish peroxidase-labeled anti-mouse IgG antibody were from Cell Signaling Technology; sure blue reserve TMB peroxidase substrate was from Kirkegaard and Perry Laboratories. […]
In the method of using WiDr cells, the cells were suspended in DMEM containing 10% FBS, and the cell suspension was applied to a 96-well Nunclondelta-processed plastic plate in an amount of 2000 cells/100 μL/well, in which the cells were incubated overnight in 5% CO2-95% air at 37° C. […] Cdc2 was determined through ELISA as follows: A rabbit anti-Cdc2 antibody solution, which had been diluted 200-fold with 50 mM carbonate-bicarbonate buffer (pH 9.6), was applied to a 96-well maxisorp plastic plate in an amount of 50 μL/well, and statically kept overnight at 4° C. so as to fix the antibody on the plate. […]

[2] = tested on: Human colon cancer cells (WiDr); assay: Checkpoint escape effect in WiDr cells + gemcitabine (phosphorylated histone H3-positive cells); assay type: cell-based; settings: gemcitabine 100 nM for 24 hours, then test compound with nocodazole for 8 hours
Description: Pharmaceutical Text 3 (Method of Determining Drug Potency in Cells (Checkpoint-Removing Effect))
Fetal bovine serum (FBS) was obtained from Morgate; DMEM was from Invitrogen; gemcitabine was from Nippon Eli Lilly; nocodazole and 4′,6-diamidino-2-phenylindole were from Sigma; rabbit anti-phosphorylated histone H3 antibody was from Upstate; and fluorescence-labeled (Alexa Fluor 488) anti-rabbit IgG antibody was from Molecular Probe.
Human colon cancer cells (WiDr) were obtained from American Type Culture Collection (ATCC).
The cells were suspended in DMEM containing 10% FBS, and the cell suspension was applied to a poly-D-lysine-coated 96-well plastic plate (bought from Becton Dickinson) in an amount of 2000 cells/100 μL/well, in which the cells were incubated overnight in 5% CO2-95% air at 37° C. […] Next, this was washed with PBS, and a solution containing 4′,6-diamidino-2-phenylindole that had been diluted with 1% BSA/PBS to have a concentration 10 μg/mL and a fluorescence-labeled (Alexa Fluor 488) anti-rabbit IgG antibody that had been diluted 250-fold was added to it in an amount 50 μL/well, and reacted in a dark place at room temperature for 60 minutes. Finally, this was washed with PBS, and its fluorescence intensity was determined to calculate the ratio of the phosphorylated histone H3-positive cells (cells that had been in a cell division cycle through removal of checkpoint). […]

- EC50 [1]: 119 nM
- EC50 [2]: 210 nM
SMILES: C=CCn1c(=O)c2cnc(Nc3ccc(N4CCN(C)CC4)cc3)nc2n1-c1cccc(C(C)(C)O)n1 [Example 53, 2-allyl-1-[6-(1-hydroxy-1-methylethyl)pyridin-2-yl]-6-{[4-(4-methylpiperazin-1-yl)phenyl]amino}-1,2-dihydro-3H-pyrazolo[3,4-d]pyrimidin-3-one]
